Experimental data taken from patent US7253286B2, “Nitrogen-containing aromatic derivatives” (Eisai Co., Ltd, priority 2000, dated 2007).

What was measured:
VEGFR2 = target: T1, VEGFR2 (Homo sapiens, UniProt P35968); test: Inhibition against VEGFR2 kinase (receptor tyrosine kinase activity, HTRF method); type: biochemical; conditions: His6-VEGFR2 cytoplasmic domain, biotin-poly(GT) substrate, ATP, 30° C. 10 minutes, read-out: IC50 (concentration required for 50% inhibition of VEGFR2 kinase activity)
T1 construct: coding for the cytoplasmic domain, beginning with lysine 791 and including the termination codon; made in house; host or cells: Sf9 insect cells (baculovirus, pFastBacHis)
Source text: Measurement of Inhibition Against Receptor Tyrosine Kinase Activity
This assay is used to determine inhibition of a test substance on tyrosine kinase activity. DNA coding for the cytoplasmic domain of VEGFR2 is obtained by total cDNA synthesis (Edwards M, International Biotechnology Lab 5(3), 19–25, 1987) or by cloning. Expression in an appropriate expression system can produce a polypeptide with tyrosine kinase activity. […] For VEGFR2 (Genbank Accession No. L04947), the 1.7 kb DNA fragment described by Terman et al. (Oncogene, 6(9), 1677–1683, 1991), coding for the cytoplasmic domain, beginning with lysine 791 and including the termination codon, was isolated from a human placental cDNA library (purchased from Clontech Laboratories, Inc.) and cloned in a Baculovirus expression vector (pFastBacHis, purchased from GIBCO BRL) The recombinant construct was transfected into insect cells (Spondoptea frugiperda9 (Sf9)) to prepare a recombinant Baculovirus. (Instructions for preparation and use of recombinant Baculovirus maybe found in standard texts, such as “Bac-To-Bac Baculovirus Expression System” (GIBCO BRL).) The cytoplasmic fragment starting from lysine 398 (FGFR1, Genbank Accession No. X52833), the cytoplasmic fragment starting from lysine 558 (PDGFRβ, Genbank Accession No. M21616) or the cytoplasmic fragment starting from lysine 974 (HGFR, Genbank Accession No. J02958) may be cloned and expressed by the same method for use in assays for other tyrosine kinases. EGFR was purchased from Sigma Co. (Product No. E-2645).
For expression of the VEGFR2 tyrosine kinase, Sf9 cells were infected with the VEGFR2 recombinant virus and collected after 48 hours. The collected cells were rinsed with ice-cooled phosphate buffered saline (PBS) and then resuspended using 20 ml of ice-cooled Lysis Buffer (50 mM Tris-HCl (pH 8.5), 5 mM 2-mercaptoethanol, 100 mM KCl, 1 mM phenylmethylsulfonyl fluoride, 1% (v/v) NP-40) per 1.5×10^8 cells. The suspension was centrifuged at 12,000 rpm for 30 minutes at 4° C. and the supernatant was obtained.
The supernatant was added to a Ni—NTA agarose column (3 ml, purchased from Qiagen) equilibrated with Buffer A {20 mM Tris-HCl (pH 8.5), 5 mM 2-mercaptoethanol, 500 mM KCl, 20 mM imidazole, 10% (v/v) glycerol}. The column was washed with 30 ml of Buffer A, and then with 6 ml of Buffer B {20 mM Tris-HCl (pH 8.5), 5 mM 2-mercaptoethanol, 1M KCl, 10% (v/v) glycerol}, and finally with 6 ml of Buffer A. After washing, it was eluted with 6 ml of Buffer C {20 mM Tris-HCl (pH8.5), 5mM2-mercaptoethanol, 100 mMKCl, 100 mM imidazole, 10% (v/v) glycerol}. The eluate was placed on a dialysis membrane (purchased from Spectrum Laboratories) and dialyzed with a dialysis buffer {20 mM Tris-HCl (pH 7.5), 10% (v/v) glycerol, 1 mM dithiothreitol, 0.1 mM Na3VO4, 0.1 mM EGTA}. After dialysis, it was supplied for SDS-electrophoresis, and the recombinant protein (His6-VEGFR2, cytoplasmic domain of VEGFR2 fused with 6 histidine residues at the N-terminus) detected at a molecular weight of approximately 100 kDa with Coumassie Brilliant Blue staining was assayed using BSA (bovine serum albumin, purchased from Sigma Co.) as the standard substance, and stored at −80° C. until use. Using the same method for the cytoplasmic domains of FGFR1, PDGFRβ and HGFR yielded respective recombinant proteins fused with 6 histidine residues at the N-termini (His6-FGFR1, His6-PDGFRβ or His6-HGFR).
The tyrosine kinase reaction was conducted as follows. […]

[1] = test system: Human Umbilical Vein Endothelial Cells (HUVECs); test: Inhibition against invasive tube formation by vascular endothelial cells in response to stimulation by angiogenic factor mixture; type: cell-based; parameters: key: the number of tubes formed in the absence of the test substance was designated as +++; scored on the 5-level scale of +++, ++, +, +/−, −; scored on the 5-level scale of +++, ++, +, +/−, −; scored on the 5-level scale of +++, ++, +, +/−, −; − was assigned if absolutely no tubes formed; conditions: HUVEC on fibrin gel, EGF/FGF2/VEGF/HGF/TNF-α mixture, 6th day, MTT staining; for number of tubes formed in the fibrin gel (score) at 0.01 μM: test substance 0.01 μM; for number of tubes formed in the fibrin gel (score) at 0.1 μM: test substance 0.1 μM; for number of tubes formed in the fibrin gel (score) at 1.0 μM: test substance 1.0 μM
Experimental: Inhibition Against Invasive Tube Formation by Vascular Endothelial Cells in Response to Stimulation by Angiogenic Factor Mixture
Human Umbilical Vein Endothelial Cells (HUVECs) were isolated according to a reported method (Shinseikagaku Jikken Koza [New Biochemistry Experiment Lectures], “Saibo Baiyo Gijutsu” [Cell Culturing Techniques], p.197–202), and were cultured in a 5% CO2 incubator (37° C.) using EGM-2 medium (purchased from Clonetics Corp.) until the cells reached confluency. After adding 0.4 ml of bovine fibrinogen (purchased from Sigma Co.) to the inner well of a Transwell culturing plate (purchased from Coster Inc.), it was hardened with 0.7 units/ml of thrombin (purchased from Sigma Co.). The HUVECs were recovered using trypsin-EDTA and then suspended in human endothelial serum free medium basal growth medium (hereinafter abbreviated as SFM, purchased from GIBCO BRL), and 0.4 ml of the cell suspension (1.4×10^5 cells) was seeded onto the hardened fibrin gel and cultured for approximately 4 hours in a 5% CO2 incubator (37° C.). After 4 hours, there was added to the outer chamber of the Transwell 1.5 ml of an SFM solution containing a mixture of angiogenic factors {10 ng/ml EGF (purchased from GIBCO BRL), 30 ng/ml FGF2 (purchased from GIBCO BRL), 75 ng/ml VEGF (purchased from Wako Pure Chemical Industries Co., Ltd.), 50 ng/ml HGF (purchased from R&D Co.) and 7.5 ng/ml TNF-α (purchased from Genzyme Corp.) [The concentrations of the angiogenic factors differed slightly according to the HUVEC lot.]} and a diluted test substance, and culturing was carried out in a 5% CO2 incubator (37° C.). On the 2nd and 4th days after adding the test substance, the medium was exchanged with 1.5 ml of freshly prepared SFM solution containing the angiogenic factor mixture and test substance. Upon aspirating off the culture supernatant in the inner well on the 6th day after the initial addition of the test substance, 0.4 ml of a 3.3 mg/ml MTT solution dissolved in PBS (purchased from Sigma Corp.) was added and culturing was performed for approximately 1 hour in a 5% CO2 incubator (37° C.). The number of tubes formed in the fibrin gel stained with MTT was scored based on microscope observation. Specifically, the number of tubes formed in the absence of the test substance was designated as +++, while − was assigned if absolutely no tubes formed. The number of tubes formed in the presence of the test substance was scored on the 5-level scale of +++, ++, +, +/−, − to evaluate the strength of inhibition of the test substance.

T1 sequence (P35968 786-1356 limits assumed): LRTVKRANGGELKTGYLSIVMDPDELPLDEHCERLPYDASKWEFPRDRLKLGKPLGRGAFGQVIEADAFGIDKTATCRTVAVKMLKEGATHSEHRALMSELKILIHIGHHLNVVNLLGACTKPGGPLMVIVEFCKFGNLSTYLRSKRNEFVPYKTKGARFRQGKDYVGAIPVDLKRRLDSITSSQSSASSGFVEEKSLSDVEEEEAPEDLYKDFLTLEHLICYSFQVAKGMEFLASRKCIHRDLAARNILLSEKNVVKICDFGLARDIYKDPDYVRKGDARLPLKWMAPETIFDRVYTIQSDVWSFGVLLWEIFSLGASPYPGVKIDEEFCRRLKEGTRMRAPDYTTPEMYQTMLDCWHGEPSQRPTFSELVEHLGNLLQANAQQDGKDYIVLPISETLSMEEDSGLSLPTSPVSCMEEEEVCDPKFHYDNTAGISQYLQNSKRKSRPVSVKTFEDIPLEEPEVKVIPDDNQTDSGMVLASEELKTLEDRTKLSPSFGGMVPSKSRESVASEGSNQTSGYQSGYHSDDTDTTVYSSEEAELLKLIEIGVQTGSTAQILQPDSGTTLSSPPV

| SMILES | IC50 (VEGFR2) | number of tubes formed in the fibrin gel (score) at 0.01 μM [1] | number of tubes formed in the fibrin gel (score) at 0.1 μM [1] | number of tubes formed in the fibrin gel (score) at 1.0 μM [1] |
| --- | --- | --- | --- | --- |
| COCCOc1cc2nccc(Oc3ccc(NC(=O)Nc4nccs4)c(F)c3)c2cc1C#N [Example 25, N-(4-(6-cyano-7-(2-methoxyethoxy)-4-quinolyl)oxy-2-fluorophenyl)-N′-(1,3-thiazol-2-yl)urea] | 5.5 nM | ++ | +/− | +/− |
| COc1cc2nccc(Oc3ccc(N(C)C(=O)Nc4ccc(F)cc4)cc3)c2cc1C(N)=O [Example 348] | 4.6 nM | +/− | − | − |
